Key:
[1] = tested on: IL-6; test: IL-6 in conditioned medium of 3D ciliated airway tissues, sandwich ELISA; assay type: cell-based, human; details: LPS 1 μg/ml, 72 h total contact
Experimental: (§1) A second study was undertaken to assess the ability of the select hydrolysable tannins to inhibit select pro-inflammatory interleukins, namely IL-6 and IL-8. The study was conducted using reconstituted human ciliated airway tissue. Specifically, Ninety Six 3D ciliated airway tissues (cat. #34839) were obtained from Mattek (Ashland, Mass.) and were cultured in Assay Media (cat. #031921JRD, MatTek). The tissue samples were rinsed twice before incubation with the MTT reagents. The test materials themselves were solubilized and diluted in sterile distilled water and added to the feeder chamber medium contacting the basal side of the tissues on Day 1. The test material was also applied topically on Day 2 together with LPS (added where indicated at 1 μg/ml, from Escherichia coli 0113, Cayman Chemical Company, Ann Arbor, Mich.) for total contact time of 72 h. The experiments were tested in triplicates or duplicates.
(§2) Following the exposures to the test materials, 1L-6 and IL-8 were quantified in the tissue culture—conditioned medium by sandwich ELISA (Table 4A and 4B). The effect of the test materials on mitochondrial metabolism was measured by the MTT assay, which quantifies the activity of mitochondrial dehydrogenases, such as succinate dehydrogenase, implicated in the respiratory electron transport chain in mitochondria. The MTT conversion values were also used to standardize the IL-6, IL-8 output data to tissue viability.

[2] = tested on: IL-8; test: IL-8 in conditioned medium of 3D ciliated airway tissues, sandwich ELISA; assay type: cell-based, human; details: LPS 1 μg/ml, 72 h total contact
Experimental: as §1, §2

[3] = target: SARS-CoV-2 RNA Polymerase (RdRp) (Severe acute respiratory syndrome coronavirus 2, UniProt P0DTD1); test: SARS-CoV-2 RNA Polymerase (RdRp) Assay Kit, fluorescent enzymatic activity in vitro; assay type: biochemical; details: for RdRp activity, % of Control: vs water control; for inhibition of SARS-CoV-2 RNA replication (in words): summary of Tables 1 and 2
[4] = tested on: Covid-19 patients; details: after treatment; preliminary findings, 21 patients; cited from earlier work
[5] = 10 μgm/ml, standardized to MTT viability
[6] = 10 μg/ml, standardized to MTT viability
[7] = 100 μg test material (0.209-0.213 μM)

## O=C(O)C[C@@H]1C(=O)O[C@H]2[C@@H]3OC(=O)c4cc(O)c(O)c(O)c4-c4c(cc(O)c(O)c4O)C(=O)OC[C@H]2O[C@@H](OC(=O)c2cc(O)c(O)c(O)c2)[C@@H]3OC(=O)c2cc(O)c(O)c3c2[C@H]1[C@H](O)C(=O)O3 [Chebulagic acid]
[1]; [5]
  IL-6, % of Control: 70 % of Control
[1]; 50 μgm/ml
  IL-6, % of Control: 40 % of Control
[1]; 200 μgm/ml
  IL-6, % of Control: 5 % of Control
[2]; [6]
  IL-8, % of Control: 112 % of Control
[2]; 50 μg/ml
  IL-8, % of Control: 100 % of Control
[2]; 200 μg/ml
  IL-8, % of Control: 66 % of Control
[3]; 10 μg test material
  RdRp activity, % of Control: 35 % of Control
[3]; 50 μg test material
  RdRp activity, % of Control: 10 % of Control
[3]; [7]
  RdRp activity, % of Control: 8 % of Control
[3]
  inhibition of SARS-CoV-2 RNA replication (in words): marked inhibition

## O=C(O)C[C@H](C(=O)O)[C@H]1c2c(cc(O)c(O)c2O)C(=O)O[C@@H]1C(=O)O [Chebulic acid, reference compound]
[1]; [5]
  IL-6, % of Control: 68 % of Control
[1]; 50 μgm/ml
  IL-6, % of Control: 106 % of Control
[1]; 100 μgm/ml
  IL-6, % of Control: 78 % of Control
[2]; [6]
  IL-8, % of Control: 96 % of Control
[2]; 50 μg/ml
  IL-8, % of Control: 108 % of Control
[2]; 100 μg/ml
  IL-8, % of Control: 111 % of Control
[3]; 10 μg test material
  RdRp activity, % of Control: 105 % of Control
[3]; 50 μg test material
  RdRp activity, % of Control: 96 % of Control
[3]
  inhibition of SARS-CoV-2 RNA replication (in words): neither Lopinavir, a commercial inhibitor of viral RNA replication, nor chebulic acid manifested effective inhibition

## O=C(O)C[C@H]1C(=O)O[C@H]2[C@H](OC(=O)c3cc(O)c(O)c(O)c3)[C@@H](OC(=O)c3cc(O)c(O)c4c3[C@H]1[C@H](O)C(=O)O4)[C@H](OC(=O)c1cc(O)c(O)c(O)c1)O[C@@H]2COC(=O)c1cc(O)c(O)c(O)c1 [Chebulinic acid]
[1]; [5]
  IL-6, % of Control: 131 % of Control
[1]; 50 μgm/ml
  IL-6, % of Control: 96 % of Control
[1]; 200 μgm/ml
  IL-6, % of Control: 18 % of Control
[2]; [6]
  IL-8, % of Control: 114 % of Control
[2]; 50 μg/ml
  IL-8, % of Control: 109 % of Control
[2]; 200 μg/ml
  IL-8, % of Control: 101 % of Control
[3]; 10 μg test material
  RdRp activity, % of Control: 25 % of Control
[3]; 50 μg test material
  RdRp activity, % of Control: 14 % of Control
[3]; [7]
  RdRp activity, % of Control: 7 % of Control
[3]
  inhibition of SARS-CoV-2 RNA replication (in words): marked inhibition

## Cc1cccc(C)c1OCC(=O)N[C@@H](Cc1ccccc1)[C@@H](O)C[C@H](Cc1ccccc1)NC(=O)[C@H](C(C)C)N1CCCNC1=O [Lopinavir, reference compound]
[1]; 10 μM
  IL-6, % of Control: 73 % of Control
[1]; 50 μM
  IL-6, % of Control: 81 % of Control
[2]; 10 μM
  IL-8, % of Control: 103 % of Control
[2]; 50 μM
  IL-8, % of Control: 104 % of Control
[3]
  EC50: > 50 µM
  inhibition of SARS-CoV-2 RNA replication (in words): neither Lopinavir, a commercial inhibitor of viral RNA replication, nor chebulic acid manifested effective inhibition
[3]; 10 μM
  RdRp activity, % of Control: 91 % of Control
[3]; 50 μM
  RdRp activity, % of Control: 80 % of Control

## O=C(OC[C@H]1O[C@@H](OC(=O)c2cc(O)c(O)c(O)c2)[C@H](OC(=O)c2cc(O)c(O)c(O)c2)[C@@H](OC(=O)c2cc(O)c(O)c(O)c2)[C@@H]1OC(=O)c1cc(O)c(O)c(O)c1)c1cc(O)c(O)c(O)c1 [Pentagallolyl glucose, Pentagalloyl glucose]
[1]; [5]
  IL-6, % of Control: 91 % of Control
[1]; 50 μgm/ml
  IL-6, % of Control: 64 % of Control
[1]; 200 μgm/ml
  IL-6, % of Control: 0 % of Control
[2]; [6]
  IL-8, % of Control: 100 % of Control
[2]; 50 μg/ml
  IL-8, % of Control: 104 % of Control
[2]; 200 μg/ml
  IL-8, % of Control: 0 % of Control
[3]; 10 μg test material
  RdRp activity, % of Control: 32 % of Control
[3]; 50 μg test material
  RdRp activity, % of Control: 12 % of Control
[3]; [7]
  RdRp activity, % of Control: 4 % of Control
[3]
  inhibition of SARS-CoV-2 RNA replication (in words): marked inhibition

## Actemra: a humanized anti-IL-6R monoclonal antibody
[4]
  patients experiencing a reduced need for supplemental oxygen: 75%

From patent US20210236529A1, “MULTI-TARGETED COMPOSITIONS FOR MITIGATING ACUTE RESPIRATORY DISTRESS SYNDROME” (priority 2020, published 2021)
